Assay results from article PMC9960821, “Evaluation of Rhenium and Technetium-99m Complexes Bearing Quinazoline Derivatives as Potential EGFR Agents” (Molecules, 2023).

Legend:
[1] = Stability of 99mTc complexes in reaction mixture and after isolation in PBS (RP-HPLC); format: physicochemical
Procedure: (§1) The stability of complexes 5b and 7b was studied in their reaction mixture and after isolation by HPLC for up to 24 h.
Stability of ^99mTc complexes in the reaction mixture: Samples of the ^99mTc complexes’ reaction mixture were stored at room temperature for up to 24 h. At 1, 6, and 24 h intervals, 100 μL of each sample was removed and analyzed by RP-HPLC.
Stability of isolated ^99mTc complexes: Purification and isolation of 5b and 7b complexes were performed by injection of the reaction mixture into RP-HPLC and isolation of the eluted compounds’ peaks, corresponding to the elution time of each complex. Followingly, 0.1 M PBS buffer solution (900 µL) was added to a vial containing 100 µL (50–120 MBq) of the isolated technetium-99m complex. The sample was incubated at 37 °C for up to 24 h and analyzed by RP-HPLC at 1, 6, and 24 h intervals.

[2] = Biodistribution in healthy Swiss Albino mice after intravenous injection; format: in vivo; settings: i.v.
Procedure: The pharmacokinetic profile of complexes 5b and 7b was evaluated in Swiss Albino healthy male mice at 5, 60, and 240 min post intravenous injection. Table 4 presents the results of the biodistribution studies expressed as % Injected Dose (ID)/g ± Standard Deviation (±SD). […] The high lipophilicity characterizing both complexes justifies the rapid hepatobiliary excretion, given the decreasing activity in the liver and the increasing amount of radioactivity in the intestines. Complex 5b presented faster clearance and elimination in the intestines at 60 min p.i. 34.05% of the radioactivity excreted, compared to 29.89% at 240 min p.i. of complex 7b. Radioactivity in the urine remained low in general, however, the lower logD7.4 value of complex 7b explains the relatively higher activity in the urines (7.88 ± 0.71%) as it is slightly more hydrophilic than 5b. Moreover, the low uptake in the brain indicates almost no blood-brain barrier penetration, although the complexes have favorable physicochemical characteristics.
All the biodistribution experiments were carried out in compliance with the national laws and European protocols (2010/63/EU) related to the conduct of animal experimentation. Nine healthy Swiss Albino mice (male, 30 ± 3 g), divided into three groups of three, were injected with the HPLC-purified 5b or 7b complex in saline with 10% EtOH (0.1 mL, ~75 kBq) through the tail vein. For each group, the animals were sacrificed by cardiectomy under slight ether anesthesia 5, 60, and 240 min after the injection. The organs of interest were excised, weighed, and counted in an automatic gamma counter. The bladder and excreted urine were not weighed. The stomach and intestines were not emptied of food contents prior to radioactivity measurements. The percentage of injected dose per organ (%ID/organ) was calculated by comparison of sample radioactivity to standard solutions containing 10% of the injected dose. The calculation for blood and muscle was based on measured activity, sample weight, and body composition data (considering that blood and muscle comprise 7 and 43% of body weight). The percentage of injected dose per gram (%ID/g) was calculated by dividing the %ID/organ by the weight of the organ or tissue.

[3] = Cysteine and histidine challenge of 99mTc complexes (RP-HPLC); format: physicochemical
Procedure: as §1
Cysteine and histidine challenge: Histidine (100 µL, 1 × 10^−2 M) or cysteine (100 µL, 1 × 10^−2 M) solution in 0.1 M PBS was mixed with 100 µL (50–120 MBq) of the RP-HPLC isolated ^99mTc complexes in 0.1 M PBS (800 µL). The mixtures were incubated at 37 °C for up to 24 h and analyzed by RP-HPLC at 1, 6, and 24 h intervals.

[4] = Lipophilicity, shake-flask distribution coefficient; format: physicochemical; settings: n-octanol/0.1 M phosphate buffer pH 7.4
Procedure: The pharmacokinetic profile of the studied compounds could be affected by their lipophilicity, expressed as the logarithm of the distribution coefficient (log Do/w). The lipophilicity of complexes 5b and 7b was determined in physiological conditions (n-octanol/0.1 M phosphate buffer pH 7.4). […] The presence of the pyridine ring in the chemical structure of complex […] increases the log D7.4 value, as expected.
The distribution coefficient of the 5b and 7b complexes was determined with the shake-flask method. The RP-HPLC isolated ^99mTc complexes (20 μL, ~75 kBq) were mixed with 2 mL of 1-octanol and 2 mL of phosphate buffer solution (PBS, 0.1 M, pH 7.4) in a centrifuge tube. The mixture was vortexed at room temperature for 2 min and centrifuged at 5000 rpm for 10 min. The radioactivity of each phase (200 μL) was counted in a gamma counter. The distribution coefficient was calculated by dividing the cpm/mL in the 1-octanol phase by those in the buffer, and the results were expressed as logD7.4. Each experiment was run in triplicate.

With `NC(CSCCCCCC(=O)Nc1ccc2ncnc(Nc3cccc(Br)c3)c2c1)C(=O)[O-].[99Tc+].[C-]#[O+].[C-]#[O+].[C-]#[O+]` (stereo not shown) [Compound 7b] the “%RCP in PBS for 24 h” value ([1]; 0.1 M PBS, 37 °C, 24 h) was 99 ± 1%, the “Stability in reaction mixture and after isolation by HPLC” value ([1]; up to 24 h, room temperature or 37 °C) was “No decomposition” and the “In vivo stability (low spleen and stomach radioactivity; no oxidation to pertechnetate/TcO2)” value [2] was “stable in vivo”. For the same compound, the “Blood %Injected Dose/g” value ([2]; 5 min) was 1.06 ± 0.29 %Injected Dose/g, the “Brain %Injected Dose/g” value ([2]; 5 min) was 0.06 ± 0.02 %Injected Dose/g and the “Heart %Injected Dose/g” value ([2]; 5 min) was 0.97 ± 0.29 %Injected Dose/g. For the same compound, the “Intestines %Injected Dose/g” value ([2]; 5 min) was 10.62 ± 1.17 %Injected Dose/g, the “Kidneys %Injected Dose/g” value ([2]; 5 min) was 13.04 ± 2.34 %Injected Dose/g and the “Liver %Injected Dose/g” value ([2]; 5 min) was 23.33 ± 3.63 %Injected Dose/g. For the same compound, the “Lungs %Injected Dose/g” value ([2]; 5 min) was 1.19 ± 0.22 %Injected Dose/g, the “Muscle %Injected Dose/g” value ([2]; 5 min) was 0.29 ± 0.11 %Injected Dose/g and the “Pancreas %Injected Dose/g” value ([2]; 5 min) was 1.10 ± 0.11 %Injected Dose/g. The “Spleen %Injected Dose/g” value ([2]; 5 min) was 0.92 ± 0.32 %Injected Dose/g, the “Stomach %Injected Dose/g” value ([2]; 5 min) was 1.04 ± 0.10 %Injected Dose/g and the “Urine % ID” value ([2]; 5 min) was 0.08 ± 0.06 % ID. The “Blood %Injected Dose/g” value ([2]; 60 min) was 0.30 ± 0.09 %Injected Dose/g, the “Brain %Injected Dose/g” value ([2]; 60 min) was 0.02 ± 0.01 %Injected Dose/g and the “Heart %Injected Dose/g” value ([2]; 60 min) was 0.18 ± 0.03 %Injected Dose/g. For the same compound, the “Intestines %Injected Dose/g” value ([2]; 60 min) was 26.81 ± 1.61 %Injected Dose/g, the “Kidneys %Injected Dose/g” value ([2]; 60 min) was 1.94 ± 0.28 %Injected Dose/g and the “Liver %Injected Dose/g” value ([2]; 60 min) was 4.88 ± 0.47 %Injected Dose/g. For the same compound, the “Lungs %Injected Dose/g” value ([2]; 60 min) was 0.26 ± 0.04 %Injected Dose/g, the “Muscle %Injected Dose/g” value ([2]; 60 min) was 0.13 ± 0.12 %Injected Dose/g and the “Pancreas %Injected Dose/g” value ([2]; 60 min) was 0.24 ± 0.05 %Injected Dose/g. For the same compound, the “Spleen %Injected Dose/g” value ([2]; 60 min) was 0.11 ± 0.02 %Injected Dose/g, the “Stomach %Injected Dose/g” value ([2]; 60 min) was 0.97 ± 0.22 %Injected Dose/g and the “Urine % ID” value ([2]; 60 min) was 5.83 ± 0.02 % ID. The “Blood %Injected Dose/g” value ([2]; 240 min) was 0.18 ± 0.04 %Injected Dose/g, the “Brain %Injected Dose/g” value ([2]; 240 min) was 0.07 ± 0.06 %Injected Dose/g and the “Heart %Injected Dose/g” value ([2]; 240 min) was 0.12 ± 0.00 %Injected Dose/g. The “Intestines %Injected Dose/g” value ([2]; 240 min) was 29.89 ± 2.41 %Injected Dose/g, the “Kidneys %Injected Dose/g” value ([2]; 240 min) was 1.12 ± 0.03 %Injected Dose/g and the “Liver %Injected Dose/g” value ([2]; 240 min) was 4.46 ± 0.16 %Injected Dose/g. The “Lungs %Injected Dose/g” value ([2]; 240 min) was 0.25 ± 0.08 %Injected Dose/g, the “Muscle %Injected Dose/g” value ([2]; 240 min) was 0.03 ± 0.00 %Injected Dose/g and the “Pancreas %Injected Dose/g” value ([2]; 240 min) was 0.12 ± 0.02 %Injected Dose/g. The “Spleen %Injected Dose/g” value ([2]; 240 min) was 0.09 ± 0.02 %Injected Dose/g, the “Stomach %Injected Dose/g” value ([2]; 240 min) was 0.96 ± 0.06 %Injected Dose/g and the “Urine % ID” value ([2]; 240 min) was 7.88 ± 0.71 % ID. For the same compound, the “Stability after incubation with excess of histidine and cysteine” value ([3]; 24 h, molar ratio 1/1000, HPLC) was > 95%, the “%RCP in Cysteine for 24 h” value ([3]; excess cysteine, 37 °C) was 95 ± 1% and the “%RCP in Histidine for 24 h” value ([3]; excess histidine, 37 °C) was 95 ± 2%. For the same compound, the “log D7.4” value [4] was 2.87 ± 0.32.
